# Test results published in US8461151B2, “Aryl-/heteroaryl-cyclohexenyl-tetraazabenzo[e]azulenes” (Hoffmann-La Roche Inc., priority 2010, dated 2013).
# Where a name gives a salt, the structure may show the parent alone.
# Molecular target: T1, human V1a receptor (Homo sapiens, UniProt P37288)
# T1 construct: expressed in transfected cells; host or cells: HEK293 cells, transiently transfected; membranes
# Test: human V1a receptor binding studies (3H-Vasopressin SPA, membranes of transfected HEK293 cells)
# Conditions: 3H-Vasopressin displacement, HEK293 cell membranes, SPA beads, 1 h at room temperature, Ki by Cheng-Prussoff from IC50, read-out: pKi (hV1a) (converted)
# Protocol: The human V1a receptor was cloned by RT-PCR from total human liver RNA. The coding sequence was subcloned in an expression vector after sequencing to confirm the identity of the amplified sequence. […] Cell membranes were prepared from HEK293-cells transiently transfected with the expression vector and grown in 20 liter fermenters with the following protocol.
# 50 g of cells are resuspended in 30 ml freshly prepared ice cold Lysis buffer (50 mM HEPES, 1 mM EDTA, 10 mM magnesium dichloride adjusted to pH=7.4+ complete cocktail of protease inhibitor (Roche Diagnostics)). Homogenized with Polytron for 1 min and sonicated on ice for 2×2 minutes at 80% intensity (Vibracell sonicator). The preparation is centrifuged 20 min at 500 g at 4° C., the pellet is discarded and the supernatant centrifuged 1 hour at 43,000 g at 4° C. (19,000 rpm). The pellet is resuspended in 12.5 ml Lysis buffer+12.5 ml sucrose 20% and homogenized using a Polytron for 1-2 min. The protein concentration is determined by the Bradford method and aliquots are stored at −80° C. until use. For binding studies 60 mg Yttrium silicate SPA beads (Amersham®) are mixed with an aliquot of membrane in binding buffer (50 mM Tris, 120 mM sodium chloride, 5 mM potassium chloride, 2 mM calcium dichloride, 10 mM magnesium dichloride) for 15 minutes with mixing. 50 μl of bead/membrane mixture is then added to each well of a 96 well plate, followed by 50 μl of 4 nM 3H-Vasopressin (American Radiolabeled Chemicals). For total binding measurement 100 μl of binding buffer are added to the respective wells, for non-specific binding 100 μl of 8.4 mM cold vasopressin and for compound testing 100 μl of a serial dilution of each compound in 2% dimethyl sulfoxide. The plate is incubated 1 h at room temperature, centrifuged 1 min at 1000 g and counted on a Packard Top-Count. Non-specific binding counts are subtracted from each well and data is normalized to the maximum specific binding set at 100%. To calculate an IC50 the curve is fitted using a non-linear regression model (XLfit) and the Ki is calculated using the Cheng-Prussoff equation.
# T1 sequence (P37288 whole entry): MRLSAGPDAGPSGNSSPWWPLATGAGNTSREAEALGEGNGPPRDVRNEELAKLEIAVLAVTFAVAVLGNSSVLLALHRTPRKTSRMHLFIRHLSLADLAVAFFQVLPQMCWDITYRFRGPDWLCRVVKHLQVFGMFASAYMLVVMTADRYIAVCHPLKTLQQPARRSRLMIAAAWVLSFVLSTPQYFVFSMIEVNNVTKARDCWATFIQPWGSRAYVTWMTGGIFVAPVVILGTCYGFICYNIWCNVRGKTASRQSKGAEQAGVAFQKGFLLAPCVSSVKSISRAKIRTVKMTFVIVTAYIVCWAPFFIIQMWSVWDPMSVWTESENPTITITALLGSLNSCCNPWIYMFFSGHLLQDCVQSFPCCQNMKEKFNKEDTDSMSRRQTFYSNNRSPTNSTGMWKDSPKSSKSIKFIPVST
row,Structure (SMILES),Ki
1,"Clc1ccc2c(c1)CNCc1nnc(C3CC=C(c4ccccc4)CC3)n1-2 (racemic) [Example 1, (RS)-8-Chloro-1-(4-phenyl-cyclohex-3-enyl)-5,6-dihydro-4H-2,3,5,10b-tetraaza-benzo[e]azulene hydrochloride]",10 nM
2,"Cc1ccccc1C1=CCC(c2nnc3n2-c2ccc(Cl)cc2CNC3)CC1 (racemic) [Example 3, (RS)-8-Chloro-1-(4-o-tolyl-cyclohex-3-enyl)-5,6-dihydro-4H-2,3,5,10b-tetraaza-benzo[e]azulene hydrochloride]",5.13 nM
3,"Cc1ccccc1C1=CCC(c2nnc3n2-c2ccc(Cl)cc2CN(C)C3)CC1 (racemic) [Example 4, (RS)-8-Chloro-5-methyl-1-(4-o-tolyl-cyclohex-3-enyl)-5,6-dihydro-4H-2,3,5,10b-tetraaza-benzo[e]azulene]",2.09 nM
4,"CC(C)(C)OC(=O)N1Cc2cc(Cl)ccc2-n2c(nnc2C2CC=C(c3ccc(F)cc3)CC2)C1 (racemic) [Example 5, (RS)-8-Chloro-1-[4-(4-fluoro-phenyl)-cyclohex-3-enyl]-4H,6H-2,3,5,10b-tetraaza-benzo[e]azulene-5-carboxylic acid tert-butyl ester]",8.32 nM
5,"Fc1ccc(C2=CCC(c3nnc4n3-c3ccc(Cl)cc3CNC4)CC2)cc1 (racemic) [Example 6, (RS)-8-Chloro-1-[4-(4-fluoro-phenyl)-cyclohex-3-enyl]-5,6-dihydro-4H-2,3,5,10b-tetraaza-benzo[e]azulene hydrochloride]",29.5 nM
6,"CN1Cc2cc(Cl)ccc2-n2c(nnc2C2CC=C(c3ccc(F)cc3)CC2)C1 (racemic) [Example 7, (RS)-8-Chloro-1-[4-(4-fluoro-phenyl)-cyclohex-3-enyl]-5-methyl-5,6-dihydro-4H-2,3,5,10b-tetraaza-benzo[e]azulene]",6.76 nM
7,"CC(C)(C)OC(=O)N1Cc2cc(Cl)ccc2-n2c(nnc2C2CC=C(c3cccc(OC(F)(F)F)c3)CC2)C1 (racemic) [Example 8, (RS)-8-Chloro-1-[4-(3-trifluoromethoxy-phenyl)-cyclohex-3-enyl]-4H,6H-2,3,5,10b-tetraaza-benzo[e]azulene-5-carboxylic acid tert-butyl ester]",72.4 nM
8,"FC(F)(F)Oc1cccc(C2=CCC(c3nnc4n3-c3ccc(Cl)cc3CNC4)CC2)c1 (racemic) [Example 9, (RS)-8-Chloro-1-[4-(3-trifluoromethoxy-phenyl)-cyclohex-3-enyl]-5,6-dihydro-4H-2,3,5,10b-tetraaza-benzo[e]azulene hydrochloride]",331 nM
9,"CN1Cc2cc(Cl)ccc2-n2c(nnc2C2CC=C(c3cccc(OC(F)(F)F)c3)CC2)C1 (racemic) [Example 10, (RS)-8-Chloro-5-methyl-1-[4-(3-trifluoromethoxy-phenyl)-cyclohex-3-enyl]-5,6-dihydro-4H-2,3,5,10b-tetraaza-benzo[e]azulene]",58.9 nM
10,"CC(C)(C)OC(=O)N1Cc2cc(Cl)ccc2-n2c(nnc2C2CC=C(c3cccc(F)c3Cl)CC2)C1 (racemic) [Example 11, (RS)-8-Chloro-1-[4-(2-chloro-3-fluoro-phenyl)-cyclohex-3-enyl]-4H,6H-2,3,5,10b-tetraaza-benzo[e]azulene-5-carboxylic acid tert-butyl ester]",8.13 nM
11,"Fc1cccc(C2=CCC(c3nnc4n3-c3ccc(Cl)cc3CNC4)CC2)c1Cl (racemic) [Example 12, (RS)-8-Chloro-1-[4-(2-chloro-3-fluoro-phenyl)-cyclohex-3-enyl]-5,6-dihydro-4H-2,3,5,10b-tetraaza-benzo[e]azulene hydrochloride]",28.8 nM
12,"CN1Cc2cc(Cl)ccc2-n2c(nnc2C2CC=C(c3cccc(F)c3Cl)CC2)C1 (racemic) [Example 13, (RS)-8-Chloro-1-[4-(2-chloro-3-fluoro-phenyl)-cyclohex-3-enyl]-5-methyl-5,6-dihydro-4H-2,3,5,10b-tetraaza-benzo[e]azulene]",5.75 nM
13,"CC(C)(C)OC(=O)N1Cc2cc(Cl)ccc2-n2c(nnc2C2CC=C(c3cccc4ccccc34)CC2)C1 (racemic) [Example 14, (RS)-8-Chloro-1-(4-naphthalen-1-yl-cyclohex-3-enyl)-4H,6H-2,3,5,10b-tetraaza-benzo[e]azulene-5-carboxylic acid tert-butyl ester]",11 nM
14,"Clc1ccc2c(c1)CNCc1nnc(C3CC=C(c4cccc5ccccc45)CC3)n1-2 (racemic) [Example 15, (RS)-8-Chloro-1-(4-naphthalen-1-yl-cyclohex-3-enyl)-5,6-dihydro-4H-2,3,5,10b-tetraaza-benzo[e]azulene hydrochloride]",112 nM
15,"CN1Cc2cc(Cl)ccc2-n2c(nnc2C2CC=C(c3cccc4ccccc34)CC2)C1 (racemic) [Example 16, (RS)-8-Chloro-5-methyl-1-(4-naphthalen-1-yl-cyclohex-3-enyl)-5,6-dihydro-4H-2,3,5,10b-tetraaza-benzo[e]azulene]",19.1 nM
16,"COc1ccc(F)cc1C1=CCC(c2nnc3n2-c2ccc(Cl)cc2CN(C(=O)OC(C)(C)C)C3)CC1 (racemic) [Example 17, (RS)-8-Chloro-1-[4-(5-fluoro-2-methoxy-phenyl)-cyclohex-3-enyl]-4H,6H-2,3,5,10b-tetraaza-benzo[e]azulene-5-carboxylic acid tert-butyl ester]",20.4 nM
17,"COc1ccc(F)cc1C1=CCC(c2nnc3n2-c2ccc(Cl)cc2CNC3)CC1 (racemic) [Example 18, (RS)-8-Chloro-1-[4-(5-fluoro-2-methoxy-phenyl)-cyclohex-3-enyl]-5,6-dihydro-4H-2,3,5,10b-tetraaza-benzo[e]azulene hydrochloride]",97.7 nM
18,"COc1ccc(F)cc1C1=CCC(c2nnc3n2-c2ccc(Cl)cc2CN(C)C3)CC1 (racemic) [Example 19, (RS)-8-Chloro-1-[4-(5-fluoro-2-methoxy-phenyl)-cyclohex-3-enyl]-5-methyl-5,6-dihydro-4H-2,3,5,10b-tetraaza-benzo[e]azulene]",10 nM
19,"CC(C)(C)OC(=O)N1Cc2cc(Cl)ccc2-n2c(nnc2C2CC=C(c3cccc(C#N)c3)CC2)C1 (racemic) [Example 20, (RS)-8-Chloro-1-[4-(3-cyano-phenyl)-cyclohex-3-enyl]-4H,6H-2,3,5,10b-tetraaza-benzo[e]azulene-5-carboxylic acid tert-butyl ester]",46.8 nM
20,"N#Cc1cccc(C2=CCC(c3nnc4n3-c3ccc(Cl)cc3CNC4)CC2)c1 (racemic) [Example 21, (RS)-3-[4-(8-Chloro-5,6-dihydro-4H-2,3,5,10b-tetraaza-benzo[e]azulen-1-yl)-cyclohex-1-enyl]benzonitrile hydrochloride]",427 nM
21,"CN1Cc2cc(Cl)ccc2-n2c(nnc2C2CC=C(c3cccc(C#N)c3)CC2)C1 (racemic) [Example 22, (RS)-3-[4-(8-Chloro-5-methyl-5,6-dihydro-4H-2,3,5,10b-tetraaza-benzo[e]azulen-1-yl)-cyclohex-1-enyl]benzonitrile]",56.2 nM

# Same assay, conditions: pKi (hV1a), 3H-Vasopressin displacement, HEK293 cell membranes, SPA beads, 1 h at room temperature, Ki by Cheng-Prussoff from IC50
row,Structure (SMILES),Ki
1,"CN1Cc2cc(Cl)ccc2-n2c(nnc2C2CC=C(c3ccccc3)CC2)C1 (racemic) [Example 2, (RS)-8-Chloro-5-methyl-1-(4-phenyl-cyclohex-3-enyl)-5,6-dihydro-4H-2,3,5,10b-tetraaza-benzo[e]azulene]",2.69 nM
